Each block holds one molecule with its values, some of them ahead of it.
Legend:
[1] = molecular target: hGPR3 (Homo sapiens, UniProt P46089); experiment: cAMP accumulation through hGPR3 stably expressed in HEK293 cells; assay type: cell-based; conditions: tested up to 100 μM
[2] = test system: GPR3; conditions: cited from earlier work
[3] = test system: HEK parental cell line; experiment: cAMP accumulation in HEK parental cell line; conditions: up to 10 μM
[4] = test system: GPR3; conditions: β-arrestin PathHunter assay; cited from earlier work

Chain of hGPR3 (P46089 whole entry): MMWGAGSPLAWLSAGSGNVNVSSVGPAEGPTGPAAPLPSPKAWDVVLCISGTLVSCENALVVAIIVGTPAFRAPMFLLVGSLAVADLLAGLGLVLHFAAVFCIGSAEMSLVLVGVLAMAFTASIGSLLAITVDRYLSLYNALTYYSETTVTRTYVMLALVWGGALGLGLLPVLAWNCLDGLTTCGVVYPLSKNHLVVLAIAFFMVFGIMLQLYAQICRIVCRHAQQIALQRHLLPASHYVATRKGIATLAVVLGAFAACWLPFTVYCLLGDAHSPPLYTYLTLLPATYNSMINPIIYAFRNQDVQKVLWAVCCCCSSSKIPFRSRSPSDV

GPR3 agonist activity in words [1]: inactive
Compound: Fc1cccc2c1-c1ccccc1[I+]2 [Compound 34]

GPR3 agonist activity in words [1]: inactive
Compound: FC1(F)Oc2cc3c(cc2O1)-c1ccccc1[I+]3 [Compound 38]

Compound: [Cl-].c1ccc2c(c1)[I+]c1ccccc1-2 [Compound 1, diphenyleneiodonium (DPI) chloride]
reported EC50 for cAMP accumulation ([2]; GPR3 activation): low micromolar range
increase of cAMP [3]: Neither compound increased cAMP
increase of cAMP ([3]; listed as DPI): but not GPR6, GPR12, or in HEK293 cells alone

Compound: CCCCCCCCCCCCC/C=C/[C@@H](O)[C@@H](N)COP(=O)(O)O [Compound S1P, sphingosine 1-phosphate]
activation of GPR3 mediated internalization [4]: does not activate
activation of cAMP accumulation ([2]; CHO or HEK cells, ref 4a, 19): does not activate

GPR3 agonist activity in words [1]: inactive
Compound: c1ccc2c(c1)Cc1ccccc1[I+]2 [Compound 23, 10H-Dibenz[b,e]iodinium]

From publication PMC10631289 (Bioorganic & medicinal chemistry letters, 2023)
